This is an account of results in patent publication US5171851A, “Imidazole substituted benzoxazine or benzothiazine derivatives” (Dong-A Pharm. Co., Ltd., priority 1990, dated 1992).

Experiment [1] has as its system blood perfused papillary muscle preparation. Kind of experiment: contractile power on blood perfused papillary muscle preparation. Also on record: species or system dog. The conditions noted are these: for activation at 0.001 mg / activation at 0.003 mg / activation at 0.01 mg / activation at 0.03 mg: Canis lupus familiaris, read-out: change of contractivity (%); for activation at 0.001 mg: dose 1.0 ug; for activation at 0.003 mg: dose 3.0 ug; for activation at 0.01 mg: dose 10.0 ug; for activation at 0.03 mg: dose 30.0 ug; for ED 30 (developed tension of papillary muscle): least-square method. As to the method:
Determination of contractile power on blood perfused papillary muscle preparation:
Dogs of either sex weighing 7-12 kg were anesthetized with sodium pentobarbital (30 mg/kg, i.v.). Heparin of 1000 unit/kg was administered to each animal intravenously. The animals were exsanguinated and heart was removed. The preparation was perfused through the cannulated anterior septal artery (ASA) with arterial blood from a donor dog at constant pressure of about […]. Donor dogs were anesthetized with sodium pentobarbital (30 mg/kg, i.v.). Heparin of 1000 units/kg was administered intravenously. The papillary muscle was stimulated with rectangular pulses of 5- ms duration and about 1.5 times the threshold voltage at a rate of 120 stimuli/min through bipolar electrodes. Resting tension was made to 2 g. The developed tension of papillary muscle was determined by Isometric tresducer. Detailed method was reporated by Matsumoto in Am J. Physiol. 218, 1459-1463 (1970). Test compound at the doses of 10-30 ul was injected in flowing blood in the gum tube connected to catheter. The inotropic effect of the test compounds was shown by change percent of developed tension compared with that prior to the administration of the test compounds.

Experiment [2] concerns blood-perfused sino-atrial preparation. Kind of experiment: sinus rate on blood-perfused sino-atrial preparation. Details: species or system dog. Conditions: for activation at 0.001 mg / activation at 0.003 mg / activation at 0.01 mg / activation at 0.03 mg: Canis lupus familiaris, read-out: change of sinus rate (%); for activation at 0.003 mg: dose 3.0 ug; for activation at 0.01 mg: dose 10.0 ug; for activation at 0.03 mg: dose 30.0 ug. As for the experimental part:
Determination of sinus rate on blood-perfused sino-atrial preparation: Mongrel gods of either sex weighing 7-12 kg were anesthetized with sodium pentoba rbital (30 mg/kg i.v.). Heparin ob 1000 unit/kg was administered to each animal intravenously and the animals were exsanguinated. Heart was removed and put in Krebs-Henseleit solution. Catheter was inserted into blood vessel between right coronary artery and SA nodes. Right atrium and catheter were together removed. Blood supplied from carotid artery of donor dog of either sex weighing 15-25 kg, was supplied to blood vessel cather from right coronary artery and SA node under constant blood pressure of 100 mmHG by use of Peristaltic pump. The resting tension of right atrial muscle was made to 2g. The sinus rate triggered by spontaneous contraction of atrial muscle was determined on Narco physiograph Narcotrace 4). Detailed method was reported by S. Chiba, et al. in Japanese Pharmacology 25, 433-439(1975). Doses of test compounds were injected into flowing blood in gum tube connected to the near part of the catheter inserted into right coronary artery. The effects on sinus rate were shown as percent compared with the sinus ratio prior to the injection of the test compounds.

A further experiment deals with anesthetized cats. Kind of experiment: cardiotonic effect on anesthetized cats. The class given is in vivo, cat. Conditions: Felis catus; for change in vivo at 0.01 mg/kg: 0.01 mg/Kg iv; for change in vivo at 0.03 mg/kg: 0.03 mg/Kg iv; for change in vivo at 0.1 mg/kg: 0.1 mg/Kg iv. As to the method: Determination of cardiotonic effect on anesthetized cats: Male cats weighing about 3 kg were anesthetized with sodium pentobarbital (30 mg/kg, i.p.). The same anesthetic was infused intravenously at the does of 4 mg/kg/hr in order to maintain the anesthetic state and mechanically ventilated through a cuffed endotracheal tube, chest was opened by a midline incision and a catheter for measuring left ventricular pressure was inserted through apex into left ventricle and the left ventricular pressure was measured. LVdP/dt was determined by use of diffentiator from the left ventricular pressure. Systemic blood pressure was measured by the left femoral artery by a pressure transducer and heart rate was measured by a cardiotachometer triggered by blood pressure pulses. Test compound was injected into the femoral vein by use of cannule. After completion of the surgical procedures, the cats were allowed to recover about 30 minutes before drug administration. These compounds were dissolved in 0.9% physiological saline and diluted with saline. Solvent such as DMSO or DMF was also used, if necessary. Test compound of 0.1 ml/kg was used. Detailed method was reporated in J. Med. Chem. 30. 1279-87(1987).

Like-named read-outs stand apart in the source and are kept apart here.

For the molecule `Cc1cn(-c2ccc3c(c2)COC(=O)N3)c(C)n1` [6-(2,4-dimethylimidazol-1-yl)-(4H)-3,1-benzoxazin-2-one], in experiment [1], the activation at 0.001 mg amounted to 0%, the activation at 0.003 mg worked out at 3.7%, the activation at 0.01 mg turned out to be 10.3% and the activation at 0.03 mg is 15.2%. Moreover, in experiment [2] (dose 1.0 ug), the activation at 0.001 mg came out at 0%. In addition, in experiment [2], the activation at 0.003 mg was 0%, the activation at 0.01 mg worked out at 0% and the activation at 0.03 mg turned out to be 1.67%. Besides, in experiment [2] (at the ED 30 dose), the “change of sinus rate (%)” value is listed as “+2.56%”.
Take `CCc1nc(C)cn1-c1ccc2c(c1)COC(=O)N2` [6-(2-ethyl-4-methylimidazol-1-yl)-(4H)-3,1-benzoxazin-2-one]: in experiment [1], the activation at 0.001 mg was found to be 0.68%, the activation at 0.003 mg is 3.45%, the activation at 0.01 mg came out at 12.5% and the activation at 0.03 mg was found to be 14.7%. Moreover, the activation at 0.001 mg in experiment [2] (dose 1.0 ug) was 0%. Besides, in experiment [2], the activation at 0.003 mg was found to be 0%, the activation at 0.01 mg is 0.83% and the activation at 0.03 mg was found to be 1.65%. The “change of sinus rate (%)” value in experiment [2] (at the ED 30 dose) is listed as “+6.82%”.
For the molecule `O=C1Nc2ccc(-n3ccnc3)cc2CS1` [6-(imidazol-1-yl)-(4H)-3,1-benzothiazin-2-one], in experiment [1], the activation at 0.01 mg is 10.7%. In addition, in experiment [1], the activation at 0.03 mg was 22.7%. Also, the change in vivo at 0.01 mg/kg was 1.6% in the experiment with anesthetized cats (read-out: HR (%)); 0% in the experiment on anesthetized cats (read-out: LV dp/dt (%)); 0% in the experiment on anesthetized cats (read-out: LVP (%)); -2.4% in the experiment with anesthetized cats (read-out: SBP (%)); 0% in the experiment on anesthetized cats (read-out: dBP); -1.2% with anesthetized cats (read-out: mBP (%)). The change in vivo at 0.03 mg/kg in the experiment with anesthetized cats (read-out: HR (%)) is 4.7%; with anesthetized cats (read-out: LV dp/dt (%)), 20%; in the experiment with anesthetized cats (read-out: LVP (%)), 9.9%; in the experiment with anesthetized cats (read-out: SBP (%)), -4.8%; in the experiment on anesthetized cats (read-out: dBP) it was -7.8%; in the experiment with anesthetized cats (read-out: mBP (%)), -5.8%. Moreover, the change in vivo at 0.1 mg/kg with anesthetized cats (read-out: HR (%)) was 7%; in the experiment on anesthetized cats (read-out: LV dp/dt (%)) it was 39.6%; in the experiment on anesthetized cats (read-out: LVP (%)), 18.9%; with anesthetized cats (read-out: SBP (%)), -19.1%; in the experiment on anesthetized cats (read-out: dBP), -19.1%; in the experiment with anesthetized cats (read-out: mBP (%)), -19.6%.
Regarding `S=C1Nc2ccc(-n3ccnc3)cc2CS1` [6-(imidazol-1-yl)-(4H)-3,1-benzothiazin-2-thione], the change in vivo at 0.01 mg/kg in the experiment on anesthetized cats (read-out: HR (%)) was -1.1%; in the experiment with anesthetized cats (read-out: LV dp/dt (%)), 8.3%; in the experiment with anesthetized cats (read-out: LVP (%)), 2%; in the experiment with anesthetized cats (read-out: SBP (%)), 2%; in the experiment on anesthetized cats (read-out: dBP) it was -3.2%; in the experiment on anesthetized cats (read-out: mBP (%)) it was -2%. In addition, the change in vivo at 0.03 mg/kg in the experiment with anesthetized cats (read-out: HR (%)) was -0.8%; with anesthetized cats (read-out: LV dp/dt (%)), 16.6%; with anesthetized cats (read-out: LVP (%)), 4%; with anesthetized cats (read-out: SBP (%)), 3%; in the experiment on anesthetized cats (read-out: dBP), -3.3%; in the experiment with anesthetized cats (read-out: mBP (%)), 0%. Further, the change in vivo at 0.1 mg/kg in the experiment on anesthetized cats (read-out: HR (%)) was 0.6%; in the experiment with anesthetized cats (read-out: LV dp/dt (%)), 25%; with anesthetized cats (read-out: LVP (%)) it was 5.7%; in the experiment with anesthetized cats (read-out: SBP (%)), 3%; in the experiment with anesthetized cats (read-out: dBP), -7.4%; in the experiment on anesthetized cats (read-out: mBP (%)), -3.6%.
In the case of `Cc1cn(-c2cc(C)c3c(c2)CSC(=O)N3)cn1` [8-methyl-6-(4-methylimidazol-1-yl)(4H)-3,1-benzothiazin-2-one], the values for the activation at 0.003 mg in experiment [1] and in experiment [2] were 26.5% and 3.3%, respectively. Further, the “ED 30 (developed tension of papillary muscle)” value in experiment [1] stood at 5.0 µg; in experiment [1] (listed as 8-methyl-6-(4-methylimidazol-1-)-(4H)-3,1-benzothiazin-2-one), 0.6 µg. Also, the change in vivo at 0.01 mg/kg in the experiment with anesthetized cats (read-out: HR (%)) was 4.2%; in the experiment with anesthetized cats (read-out: LV dp/dt (%)) it was 33.3%; in the experiment with anesthetized cats (read-out: LVP (%)), 3.3%; in the experiment on anesthetized cats (read-out: SBP (%)), 0%; with anesthetized cats (read-out: dBP) it was 0%; with anesthetized cats (read-out: mBP (%)) it was 0%. Besides, the change in vivo at 0.03 mg/kg is 7.3% in the experiment on anesthetized cats (read-out: HR (%)); 58.4% in the experiment on anesthetized cats (read-out: LV dp/dt (%)); 5.7% with anesthetized cats (read-out: LVP (%)); -3.8% with anesthetized cats (read-out: SBP (%)); -4% with anesthetized cats (read-out: dBP); -4.5% with anesthetized cats (read-out: mBP (%)). Moreover, the change in vivo at 0.1 mg/kg with anesthetized cats (read-out: HR (%)) is 12.6%; in the experiment on anesthetized cats (read-out: LV dp/dt (%)) it was 75%; with anesthetized cats (read-out: LVP (%)), 8.8%; in the experiment with anesthetized cats (read-out: SBP (%)), -6.5%; with anesthetized cats (read-out: dBP), -12%; in the experiment with anesthetized cats (read-out: mBP (%)) it was -16.1%. The “change of sinus rate (%)” value in experiment [2] (at the ED 30 dose) is recorded as “+3.5%”; in experiment [2] (at the ED 30 dose, listed as 8-methyl-6-(4-methylimidazol-1-)-(4H)-3,1-benzothiazin-2-one), “+7.1%”; in experiment [2] (dose 0.1 ug), “+2.5%”; in experiment [2] (dose 0.3 ug), “+1.6%”; in experiment [2] (dose 1.0 ug), “+2.5%”.
Consider `Cc1cn(-c2cc(C)c3c(c2)CSC(=S)N3)cn1` [8-methyl-6-(4-methylimidazol-1-yl)-(4H)-3,1-benzothiazin-2-thione], for which the change in vivo at 0.01 mg/kg with anesthetized cats (read-out: HR (%)) was 0%; with anesthetized cats (read-out: LV dp/dt (%)), 6%; in the experiment on anesthetized cats (read-out: LVP (%)), 1.2%; in the experiment with anesthetized cats (read-out: SBP (%)), -2.3%; in the experiment on anesthetized cats (read-out: dBP), -5.1%; in the experiment on anesthetized cats (read-out: mBP (%)), -3.3%. Besides, the change in vivo at 0.03 mg/kg in the experiment on anesthetized cats (read-out: HR (%)) was 1.6%; in the experiment on anesthetized cats (read-out: LV dp/dt (%)), 20%; in the experiment on anesthetized cats (read-out: LVP (%)), 1.8%; in the experiment on anesthetized cats (read-out: SBP (%)), -2.3%; in the experiment with anesthetized cats (read-out: dBP) it was -7.7%; in the experiment with anesthetized cats (read-out: mBP (%)) it was -5.3%. In addition, the change in vivo at 0.1 mg/kg is 10.9% with anesthetized cats (read-out: HR (%)); 53.3% in the experiment with anesthetized cats (read-out: LV dp/dt (%)); 2% in the experiment with anesthetized cats (read-out: LVP (%)); -3.1% with anesthetized cats (read-out: SBP (%)); -11.5% with anesthetized cats (read-out: dBP); -7.6% in the experiment on anesthetized cats (read-out: mBP (%)).
